Assay results reported in patent publication US10030016B2 (Sunesis Pharmaceuticals, Inc., priority 2009, dated 2018).
Structures can show the parent of a compound that is named as a salt. Where two headings read alike, the source gives them in different places.

Key:
PDK1 = PDK1 (Homo sapiens (Human), UniProt O15530); assay: PDK1 kinase assay (coupled PDK1/AKT/FAM-crosstide assay, IMAP fluorescence polarization); assay type: biochemical
How it was run: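 GST-tagged human PDK1 (aa 51-359, 0.75 nM) from insect cells activated unphosphorylated GST-AKT2 (aa 140-467–PIFtide fusion, 10 nM), which phosphorylated 100 nM FAM-crosstide; 40 μM ATP, pH 7.2 Tris/MgCl2, 30 min at 25° C. IMAP fluorescence polarization read-out; ΔmP versus compound concentration fitted with a 4-parameter curve.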

[1] = tested on: phospho-akt (Thr308) in PC-3 cells; assay: Inhibition of phospho-akt (Thr308) in PC-3 cells, MSD phospho-akt 308 ELISA kit; assay type: cell-based; details: Homo sapiens, 2 hours, no serum, read-out: EC50
How it was run: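 Serum-free 2 h compound exposure of overnight-seeded PC-3 cells, threefold dilution series; lysates analysed on blocked MSD plates (3% BSA) for Thr308-phosphorylated Akt, normalised between DMSO and 5 μM wortmannin wells.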

[2] = inhibition of P308 Akt in PC-3 cells using MSD
[3] = inhibition of phospo-PDK1 in vitro
[4] = inhibition of P308 Akt in PC-3 cells, MSD
[5] = PC-3, 2 h, inhibition of P308 Akt in PC-3 cells, MSD

Sequence of PDK1 (O15530 51-359): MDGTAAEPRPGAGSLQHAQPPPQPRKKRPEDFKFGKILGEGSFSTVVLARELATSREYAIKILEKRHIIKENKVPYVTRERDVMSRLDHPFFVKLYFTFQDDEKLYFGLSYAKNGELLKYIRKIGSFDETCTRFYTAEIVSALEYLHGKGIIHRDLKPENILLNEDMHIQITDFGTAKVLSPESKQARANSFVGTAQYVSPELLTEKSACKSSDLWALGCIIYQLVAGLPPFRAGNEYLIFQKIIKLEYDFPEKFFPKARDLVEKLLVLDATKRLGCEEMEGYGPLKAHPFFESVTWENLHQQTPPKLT

Compound	IC50 (PDK1; inhibition of PDK1 in vitro) [µM]	EC50 [1, 2] [µM]	IC50 (PDK1; [3]) [µM]	further results
CC(C)NC(=O)c1cccnc1NCc1cccc(-c2c[nH]c3ncccc23)c1 [Example 1.10, N-(propan-2-yl)-2-{[3-(1H-pyrrolo [2,3-b]pyridin-3-yl)benzyl]amino} pyridine-3-carboxamide]			> 5	EC50 [1, 4]: 1 to 10 µM
Nc1n[nH]c2ncc(-c3ccc(CNc4ncc(C(F)(F)F)cc4C(=O)Nc4cccc(C(F)(F)F)c4)cc3)cc12 [Example 294]	< 0.1	1 to 10		
O=C(NCc1ccc(F)cc1)c1cccnc1NCc1ccc(-c2c[nH]c3ncccc23)s1 [Example 1.16, 2-(((5-(1H-pyrrolo[2,3-b]pyridin-3-yl)thiophen-2-yl)methyl)amino)-N-(4-fluorobenzyl)nicotinamide]			0.1 to 1	EC50 [1, 5]: > 10 µM
Cc1ncc(CNC(=O)c2cccnc2NCc2ccc(-c3ccc4ncnc(N)c4c3)s2)cc1F [Example 3.67, 2-(((5-(4-aminoquinazolin-6-yl)thiophen-2-yl)methyl)amino)-N-((5-fluoro-6-methylpyridin-3-yl)methyl)nicotinamide (TFA salt)]			1 to 5	EC50 [1, 5]: > 10 µM
Nc1ncnc2ccc(-c3ccc(CNc4nc(C(F)(F)F)ccc4C(=O)NCc4ccc(F)c(F)c4)s3)cc12 [Example 8.12.2, 2-({[5-(4-aminoquinazolin-6-yl)thiophen-2-yl]methyl}amino)-N-(3,4-difluorobenzyl)-6-(trifluoromethyl)pyridine-3-carboxamide]			< 0.1	EC50 [1, 4]: 1 to 10 µM
Nc1ncnc2ccc(-c3cccc(CNc4ncccc4C(=O)NCc4ccc(F)c(F)c4)c3)cc12 [Example 6.1, 2-(3-(4-aminoquinazolin-6-yl)benzylamino)-N-(3,4-difluorobenzyl)nicotinamide]			< 0.1	EC50 [1, 4]: 1 to 10 µM
C[C@H](NC(=O)c1cccnc1NCc1ccc(-c2ccc(N)nc2)cc1)c1ccc(F)c(F)c1 [Example 369, (S)-2-(4-(6-aminopyridin-3-yl)benzylamino)-N-(1-(3,4-difluorophenyl)ethyl) nicotinamide]	< 0.1	1 to 10		
C[C@H](NC(=O)c1cccnc1NCc1ccc(-c2cn(C3CCC3)c3ncnc(N)c23)s1)c1ccc(F)cc1 [Example 345]	0.1 to 1			EC50 ([1]; PC-3, 2 h, inhibition of P308 Akt in PC-3 cells using MSD): < 1 µM
C[C@H](NC(=O)c1nc(C#N)cnc1NCc1ccc(-c2ccn3ncnc(N)c23)cc1)c1ccc(F)c(F)c1 [Example 175, 3-[4-(4-Amino-pyrrolo [2,1-f][1,2,4]triazin-5-yl)-benzylamino]-6-cyano-pyrazine-2-carboxylic acid [(S)-1-(3,4-difluoro-phenyl)-ethyl]-amide]	< 0.1	< 1		
CCOC(=O)Nc1n[nH]c2ncc(-c3ccc(CNc4ncc(C#N)nc4C(=O)N[C@@H](C)c4ccc(F)c(F)c4)cc3)cc12 [Example 36, (S)-ethyl 5-(4-((5-cyano-3-(1-(3,4-difluorophenyl)ethylcarbamoyl)pyrazin-2-ylamino)methyl)phenyl)-1H-pyrazolo[3,4-b]pyridin-3-ylcarbamate]			< 0.1	EC50 [1, 4]: < 1 µM
Nc1n[nH]c2ncc(-c3ccc(CNc4ncc(C(F)(F)F)cc4C(=O)NC4CCC(F)(F)CC4)cc3)cc12 [Example 284, 2-(4-(3-amino-1H-pyrazolo [3,4-b]pyridin-5-yl)benzylamino)-N-(4,4-difluorocyclohexyl)-5-(trifluoromethyl)nicotinamide]	> 5	1 to 10		
C[C@H](NC(=O)c1cc(C#N)cnc1NCc1ccc(-c2ccc3c(N)ncnn23)cc1)c1ccc(F)cc1 [Example 178, 2-[4-(4-Amino-pyrrolo [2,1-f][1,2,4]triazin-7-yl)-benzylamino]-5-cyano-N-[(S)-1-(4-fluoro-phenyl)-ethyl]-nicotinamide]	< 0.1	1 to 10		

Continued, in another order:

IC50 (PDK1; inhibition of PDK1 in vitro) [µM]	EC50 [1, 2] [µM]	IC50 (PDK1; [3]) [µM]	Compound	further results
< 0.1	< 1		Cn1cnc2cnc3ccc(-c4cnc(CNc5ncccc5C(=O)NCc5ccc(F)c(F)c5)s4)cc3c21 [Example 384, N-(3,4-Difluoro-benzyl)-2-{[5-(1-methyl-1H-imidazo [4,5-c]quinolin-8-yl)-thiazol-2-ylmethyl]-amino}-nicotinamide]	
		> 5	CC(C)Oc1cc(CNc2ncccc2C(=O)N(C)C2CCCCC2)cc(-c2c[nH]c3ncc(C(=O)NC4CC4)cc23)c1 [Example 4.1.6, 3-{3-[({3-[cyclohexyl(methyl)carbamoyl]pyridin-2-yl}amino)methyl]-5-(propan-2-yloxy)phenyl}-N-cyclopropyl-1H-pyrrolo[2,3-b]pyridine-5-carboxamide]	EC50 [1, 4]: > 10 µM
< 0.1	< 1		C[C@H](NC(=O)c1cc(C#N)cnc1NCc1ccc(-c2cnc(N)c(C(=O)NCCO)c2)cc1)c1ccc(F)cc1 [Example 204, (S)-2-amino-5-(4-((5-cyano-3-(1-(4-fluorophenyl)ethylcarbamoyl)pyridin-2-ylamino)methyl)phenyl)-N-(2-hydroxyethyl) nicotinamide]	
< 0.1	< 1		Nc1n[nH]c2ncc(-c3ccc(CNc4ncc(C(F)(F)F)cc4C(=O)Nc4ccc(C(F)(F)F)cc4)cc3)cc12 [Example 296]	
> 5	> 10		NC(=O)c1cc(CNc2ncccc2C(=O)NCc2ccc(F)c(F)c2)ccc1-n1ccnc1 [Example 50, 2-(3-carbamoyl-4-(1H-imidazol-1-yl)benzylamino)-N-(3,4-difluorobenzyl)nicotinamide]	
		< 0.1	Nc1ncnc2ccc(-c3ccc(CNc4nccnc4C(=O)NCc4cc(F)c(F)c(F)c4)s3)cc12 [Example 3.71, 3-({[5-(4-aminoquinazolin-6-yl)thiophen-2-yl]methyl}amino)-N-(3,4,5-trifluorobenzyl)pyrazine-2-carboxamide (TFA salt)]	EC50 [1, 4]: < 1 µM
< 0.1	< 1		N#Cc1cnc(NCc2ccc(-c3ccc(N)nc3)cc2)c(C(=O)NCc2cncc(F)c2)c1 [Example 310, 2-(4-(6-aminopyridin-3-yl)benzylamino)-5-cyano-N-((5-fluoropyridin-3-yl)methyl)nicotinamide]	
< 0.1	< 1		CN(Cc1ccc(F)c(F)c1)C(=O)c1nc(C#N)cnc1NCc1ccc(-c2cnc3[nH]nc(N)c3c2)cc1 [Example 413, 3-(4-(3-amino-1H-pyrazolo[3,4-b]pyridin-5-yl)benzylamino)-6-cyano-N-(3,4-difluorobenzyl)-N-methylpyrazine-2-carboxamide]	
< 0.1	< 1		N#Cc1cnc(NCc2ccc(-c3ccc(N)nc3)cc2)c(C(=O)NCc2ccc(F)c(F)c2)c1 [Example 368, 2-(4-(6-aminopyridin-3-yl)benzylamino)-5-cyano-N-(3,4-difluorobenzyl) nicotinamide]	
< 0.1	1 to 10		Cc1nc2[nH]nc(N)c2cc1-c1ccc(CNc2ncc(C#N)nc2C(=O)N[C@@H](C)c2ccc(F)c(F)c2)cc1 [Example 400, (S)-3-(4-(3-amino-6-methyl-1H-pyrazolo[3,4-b]pyridin-5-yl)benzylamino)-6-cyano-N-(1-(3,4-difluorophenyl)ethyl)pyrazine-2-carboxamide]	
< 0.1	1 to 10		C[C@H](NC(=O)c1cc(C#N)cnc1NCc1ccc(-c2cnc(N)c(CO)c2)cc1)c1ccc(F)cc1 [Example 136, (S)-2-(4-(6-amino-5-(hydroxymethyl)pyridin-3-yl)benzylamino)-5-cyano-N-(1-(4-fluorophenyl)ethyl)nicotinamide]	
